“And” between values parts separate entries of the source, which are not always exact repeats. Equal values may be shown once. Results filed as inconclusive are left out.
Tested on: BDF1 mice, colon carcinoma 38 sc, T/C %
Assay: NCI In Vivo Anticancer Drug Screen. Data for tumor model Colon Carcinoma 38 (subcutaneous) in B6D2F1 (BDF1) mice
Details: endpoint: median tumor weight (est.), higher = larger tumour
Procedure, shortened: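 T/C readout: treated group (T) measurement over vehicle control group (C) measurement. Endpoint is survival or tumor size in mice bearing a transplanted tumor.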

[1] = dose: 0.06 mg/kg/injection, schedule: Q07DX002 (ip), vehicle: saline
[2] = dose: 0.12 mg/kg/injection, schedule: Q07DX002 (ip), vehicle: saline
[3] = dose: 25.0 mg/kg/injection, schedule: Q07DX002 (ip), vehicle: saline with Tween-80
[4] = dose: 50.0 mg/kg/injection, schedule: Q07DX002 (ip), vehicle: saline with Tween-80
[5] = dose: 200.0 mg/kg/injection, schedule: Q07DX002 (ip), vehicle: saline with Tween-80
[6] = dose: 12.5 mg/kg/injection, schedule: Q07DX002 (ip), vehicle: saline with Tween-80
[7] = dose: 100.0 mg/kg/injection, schedule: Q07DX002 (ip), vehicle: saline with Tween-80
[8] = dose: 400.0 mg/kg/injection, schedule: Q07DX002 (ip), vehicle: saline with Tween-80
[9] = dose: 6.25 mg/kg/injection, schedule: Q07DX002 (ip), vehicle: Klucel (hydroxypropylcellulose) (HPC)
[10] = dose: 12.5 mg/kg/injection, schedule: Q07DX002 (ip), vehicle: Klucel (hydroxypropylcellulose) (HPC)
[11] = dose: 25.0 mg/kg/injection, schedule: Q07DX002 (ip), vehicle: Klucel (hydroxypropylcellulose) (HPC)
[12] = dose: 50.0 mg/kg/injection, schedule: Q07DX002 (ip), vehicle: Klucel (hydroxypropylcellulose) (HPC)
[13] = dose: 100.0 mg/kg/injection, schedule: Q07DX002 (ip), vehicle: Klucel (hydroxypropylcellulose) (HPC)
[14] = dose: 12.5 mg/kg/injection, schedule: Q07DX002 (ip), vehicle: water
[15] = dose: 25.0 mg/kg/injection, schedule: Q07DX002 (ip), vehicle: water
[16] = dose: 50.0 mg/kg/injection, schedule: Q07DX002 (ip), vehicle: water
[17] = dose: 100.0 mg/kg/injection, schedule: Q07DX002 (ip), vehicle: water
[18] = dose: 200.0 mg/kg/injection, schedule: Q07DX002 (ip), vehicle: water
[19] = dose: 1600.0 mg/kg/injection, schedule: Q07DX002 (ip), vehicle: saline
[20] = dose: 200.0 mg/kg/injection, schedule: Q07DX002 (ip), vehicle: Klucel (hydroxypropylcellulose) (HPC)
[21] = dose: 400.0 mg/kg/injection, schedule: Q07DX002 (ip), vehicle: Klucel (hydroxypropylcellulose) (HPC)
[22] = dose: 3.12 mg/kg/injection, schedule: Q07DX002 (ip), vehicle: Klucel (hydroxypropylcellulose) (HPC)

Structure (SMILES): CCC1=C[C@H]2CN(CCc3c([nH]c4ccccc34)[C@@](C(=O)OC)(c3cc4c(cc3OC)N(C)[C@H]3[C@@](O)(C(=O)NC)[C@H](OC(C)=O)[C@]5(CC)C=CCN6CC[C@]43[C@@H]65)C2)C1
- T/C (dose: 0.03 mg/kg/injection, schedule: Q07DX002 (ip), vehicle: saline): 116 % of control
- T/C [1]: 84 % of control
- T/C [2]: 90 % of control
- T/C (dose: 0.5 mg/kg/injection, schedule: Q07DX002 (ip), vehicle: saline): 108 % of control
- T/C (dose: 1.0 mg/kg/injection, schedule: Q07DX002 (ip), vehicle: saline): 90 % of control

Structure (SMILES): O=CN(SSN(C=O)C1CCCCC1)C1CCCCC1
- T/C [3]: 98 % of control and 99 % of control
- T/C [4]: 77 % of control and 78 % of control
- T/C [5]: 113 % of control and 98 % of control

Structure (SMILES): CC1(C)CC1(Br)Br
- T/C [6]: 155 % of control
- T/C [3]: 110 % of control and 96 % of control
- T/C [4]: 150 % of control
- T/C [7]: 124 % of control and 106 % of control
- T/C [5]: 155 % of control
- T/C [8]: 107 % of control

Structure (SMILES): C=C(Cl)C(=NC(C)(C)C)Nc1ccccc1C
- T/C [9]: 68 % of control
- T/C [10]: 96 % of control
- T/C [11]: 76 % of control
- T/C [12]: 84 % of control
- T/C [13]: 113 % of control

Structure (SMILES): Nc1nc2c(ncn2C2OC(CO)C(O)C2O)c(=O)[nH]1.Nc1nc2c(ncn2C2OC(CO)C(O)C2O)c(=O)[nH]1.[NH2-].[NH2-].[Pt+2] (centres undefined)
- T/C [14]: 30 % of control
- T/C [15]: 108 % of control
- T/C [16]: 96 % of control
- T/C [17]: 248 % of control
- T/C [18]: 117 % of control

Structure (SMILES): COC1C=CC23c4cc5c(cc4C(O)OC2CN(C)C3C1)OCO5 (centres undefined)
- T/C (dose: 18.75 mg/kg/injection, schedule: Q07DX002 (ip), vehicle: suspension in saline): 91 % of control
- T/C (dose: 37.5 mg/kg/injection, schedule: Q07DX002 (ip), vehicle: suspension in saline): 82 % of control
- T/C (dose: 75.0 mg/kg/injection, schedule: Q07DX002 (ip), vehicle: suspension in saline): 105 % of control

Structure (SMILES): CC(=O)Nc1ccc(S(=O)(=O)CO)cc1
- T/C [6]: 116 % of control and 97 % of control
- T/C [3]: 84 % of control and 107 % of control
- T/C [4]: 89 % of control
- T/C [7]: 88 % of control and 91 % of control
- T/C [5]: 89 % of control and 97 % of control

Structure (SMILES): NCCc1ccc(O)c(O)c1
- T/C (dose: 112.5 mg/kg/injection, schedule: Q07DX002 (ip), vehicle: Klucel (hydroxypropylcellulose) (HPC)): 122 % of control
- T/C (dose: 225.0 mg/kg/injection, schedule: Q07DX002 (ip), vehicle: Klucel (hydroxypropylcellulose) (HPC)): 109 % of control and 87 % of control
- T/C (dose: 450.0 mg/kg/injection, schedule: Q07DX002 (ip), vehicle: Klucel (hydroxypropylcellulose) (HPC)): 113 % of control and 103 % of control
- T/C (dose: 900.0 mg/kg/injection, schedule: Q07DX002 (ip), vehicle: Klucel (hydroxypropylcellulose) (HPC)): 95 % of control and 97 % of control

Structure (SMILES): CO[C@H](C(=O)[C@@H](O)[C@@H](C)O)[C@@H]1Cc2cc3cc(OC4CC(OC5CC(O)C(O)C(C)O5)C(O)C(C)O4)c(C)c(O)c3c(O)c2C(=O)[C@H]1OC1CC(OC2CC(OC3CC(C)(O)C(O)C(C)O3)C(O)C(C)O2)C(O)C(C)O1 (some centres undefined)
- T/C [1]: 114 % of control
- T/C [2]: 99 % of control
- T/C (dose: 0.25 mg/kg/injection, schedule: Q07DX002 (ip), vehicle: saline): 161 % of control
- T/C (dose: 0.25 mg/kg/injection, schedule: Q07DX003 (ip), vehicle: saline): 75 % of control
- T/C (dose: 0.5 mg/kg/injection, schedule: Q07DX003 (ip), vehicle: saline): 65 % of control
- T/C (dose: 1.0 mg/kg/injection, schedule: Q07DX003 (ip), vehicle: saline): 49 % of control
- T/C (dose: 2.0 mg/kg/injection, schedule: Q07DX003 (ip), vehicle: saline): 37 % of control

Structure (SMILES): O=C(O)CP(=O)(O)O
- T/C (dose: 200.0 mg/kg/injection, schedule: Q07DX002 (ip), vehicle: saline): 115 % of control and 96 % of control
- T/C (dose: 800.0 mg/kg/injection, schedule: Q07DX002 (ip), vehicle: saline): 78 % of control and 80 % of control
- T/C [19]: 59 % of control

Structure (SMILES): CCCCNc1ccc2nnc(C)n2n1
- T/C (dose: 25.0 mg/kg/injection, schedule: Q07DX002 (ip), vehicle: other): 102 % of control
- T/C (dose: 200.0 mg/kg/injection, schedule: Q07DX002 (ip), vehicle: other): 98 % of control and 108 % of control

Structure (SMILES): C[C@@H]1C[C@H]2[C@@H]3CCC4=CC(=O)C=C[C@]4(C)[C@@]3(F)[C@@H](O)C[C@]2(C)[C@@]1(O)C(=O)CO
- T/C [9]: 156 % of control
- T/C [20]: 53 % of control and 58 % of control
- T/C [21]: 25 % of control

Structure (SMILES): NCC1CCC(C(=O)O)CC1 (centres undefined)
- T/C [3]: 83 % of control
- T/C [4]: 104 % of control
- T/C [7]: 99 % of control
- T/C [5]: 102 % of control

Structure (SMILES): COC1C(CO)OC(n2cnc3c(=S)nc(N)[nH]c32)C1O (centres undefined)
- T/C [10]: 98 % of control
- T/C [11]: 74 % of control
- T/C [12]: 44 % of control
- T/C [13]: 118 % of control
- T/C [20]: 69 % of control
- T/C [21]: 44 % of control

Structure (SMILES): Cc1cnc(/C=N\NC(N)=S)c2cccc(N)c12
- T/C (dose: 6.25 mg/kg/injection, schedule: Q07DX002 (ip), vehicle: saline with Tween-80): 110 % of control
- T/C (dose: 6.25 mg/kg/injection, schedule: Q07DX003 (ip), vehicle: saline with Tween-80): 88 % of control
- T/C [6]: 69 % of control
- T/C (dose: 12.5 mg/kg/injection, schedule: Q07DX003 (ip), vehicle: saline with Tween-80): 111 % of control
- T/C (dose: 25.0 mg/kg/injection, schedule: Q07DX003 (ip), vehicle: saline with Tween-80): 122 % of control
- T/C [4]: 36 % of control and 57 % of control
- T/C (dose: 50.0 mg/kg/injection, schedule: Q07DX003 (ip), vehicle: saline with Tween-80): 45 % of control

Structure (SMILES): CN(C(=S)S(=O)(=O)C12CC3CC(CC(C3)C1)C2)c1ccccc1
- T/C [22]: 104 % of control
- T/C [9]: 92 % of control and 102 % of control
- T/C [10]: 116 % of control and 93 % of control
- T/C [12]: 101 % of control and 106 % of control
- T/C [13]: 115 % of control
- T/C [20]: 105 % of control

Structure (SMILES): CCCCCCC(=O)/C=C/c1cccc(OCOCC)c1
- T/C [4]: 122 % of control
- T/C [7]: 103 % of control
- T/C [5]: 104 % of control
- T/C [8]: 89 % of control

Structure (SMILES): Nc1n[nH]c(N)n1
- T/C (dose: 100.0 mg/kg/injection, schedule: Q07DX002 (ip), vehicle: saline): 84 % of control and 90 % of control and 105 % of control
- T/C (dose: 100.0 mg/kg/injection, schedule: Q07DX003 (ip), vehicle: saline with Tween-80): 56 % of control
- T/C (dose: 400.0 mg/kg/injection, schedule: Q07DX002 (ip), vehicle: saline): 65 % of control and 69 % of control and 71 % of control
- T/C (dose: 400.0 mg/kg/injection, schedule: Q07DX003 (ip), vehicle: saline with Tween-80): 110 % of control
- T/C (dose: 800.0 mg/kg/injection, schedule: Q07DX003 (ip), vehicle: saline with Tween-80): 102 % of control
- T/C [19]: 71 % of control and 73 % of control and 81 % of control

Structure (SMILES): O=C1CN(CCN2CC(=O)N(CN3CCOCC3)C(=O)C2)CC(=O)N1CN1CCOCC1
- T/C [14]: 168 % of control
- T/C [15]: 158 % of control
- T/C [16]: 36 % of control
- T/C [17]: 113 % of control and 90 % of control
- T/C [18]: 57 % of control

Structure (SMILES): C=C(C)C(=O)O[C@H]1CC2=C[C@@H](C[C@@]3(C)O[C@@H]3[C@H]3OC(=O)C(=C)[C@@H]31)OC2=O
- T/C [22]: 93 % of control
- T/C [9]: 112 % of control and 105 % of control
- T/C [10]: 93 % of control
- T/C [11]: 90 % of control and 102 % of control
- T/C [12]: 113 % of control and 100 % of control

Structure (SMILES): CCOC(=O)C1C2OC(=O)C(C(=O)C2CN(CCCl)CCCl)C1C1CC=C(CC2=CCC(C3C4C(=O)OC(C(CN(CCCl)CCCl)C4=O)C3C(=O)OCC)CC2)CC1 (centres undefined)
- T/C (dose: 12.5 mg/kg/injection, schedule: Q07DX003 (ip), vehicle: Klucel (hydroxypropylcellulose) (HPC)): 95 % of control
- T/C (dose: 25.0 mg/kg/injection, schedule: Q07DX003 (ip), vehicle: Klucel (hydroxypropylcellulose) (HPC)): 117 % of control
- T/C (dose: 50.0 mg/kg/injection, schedule: Q07DX003 (ip), vehicle: Klucel (hydroxypropylcellulose) (HPC)): 116 % of control
- T/C (dose: 100.0 mg/kg/injection, schedule: Q07DX003 (ip), vehicle: Klucel (hydroxypropylcellulose) (HPC)): 110 % of control
- T/C (dose: 200.0 mg/kg/injection, schedule: Q07DX003 (ip), vehicle: Klucel (hydroxypropylcellulose) (HPC)): 67 % of control

From PubChem BioAssay AID212 (DTP/NCI, 2004)
